Patent US20140378541A1, “Synthetic Epigallocatechin Gallate (EGCG) Analogs” (WAYNE STATE UNIVERSITY, priority 2011, published 2014)

Columns and labels:
[1] = system: Human breast cancer MDA-MB-231 cells; assay: MTT cell proliferation assay in MDA-MB-231 cells; type: cell-based; conditions: indicated concentrations, 24 h, MTT
Description: Human breast cancer MDA-MB-231 cells were treated with 25 or 50 μM EGCG analogs for 24 hours, followed by MTT assay. Pro-EGCG was used as a comparison.
Human breast cancer MDA-MB-231 cells with high COMT activity were treated with 50 μM EGCG analogs for 24 hours in the absence or presence of 10 μM DNC, followed by MTT assay. Pro-EGCG was used as a comparison.
(§1) (A) EGCG analogs 23 and 30 inhibited breast cancer cell proliferation. MDA-MB-231 cells were treated with indicated concentrations of 23, 30 or metformin for 24 h, followed by a MTT assay. *, P<0.1; **, P<0.01. Columns, mean of three experiments; bars, SD. (B) EGCG analogs 23 and 30 activated AMPK at a dose-dependent manner, measured by elevated level of phosphor-AMPKα and its downstream proteins of phosphor-Raptor. […] MDA-MB-231 cells were treated with indicated concentrations of 23 or 30 for 3 h, followed by Western blot analysis with the indicated antibodies. The numbers underneath the Western results of p-AMPKα indicated normalized phosphor-AMPKα/β-actin ratios. […]
Cells were grown in a 96-well plate. Triplicate wells of cells were treated with indicated concentrations of EGCG or EGCG analogs for 24 h. After aspiration of medium, MTT (1 mg/ml) was then added to the cell cultures, followed by incubation for 3 h at 37° C. After cells were crystallized, MTT was removed and DMSO was added to dissolve the metabolized MTT product. The absorbance was then measured on a Wallac Victor3 1420 Multi-label counter at 540 nm.

AMPK signaling = assay: AMPK activation, Western blot, MDA-MB-231 cells; type: cell-based, human; conditions: 3 h; for AMPK activation (p-AMPK): 20 μM, metformin 10 mM as comparison; for AMPK activation (phosphor-AMPKα, phosphor-Raptor), dose dependence: indicated concentrations
Description: (§2) In FIG. 9A, human breast cancer MDA-MB-231 cells were treated with 20 μM of EGCG, Pro-EGCG and EGCG analogs (compounds 5, 7, 23, 30 and 31), or 10 mM of metformin for 3 hrs. Cell lysates were analyzed by Western blot using antibodies of anti-AMPK, p-AMPK, PARP, p-EGFR, EGFR or β-actin. In FIG. 9B, human breast cancer MDA-MB-231 cells were treated with 20 μM of EGCG analogs 23 and 30, 10 nM of docetaxel alone, or combined treatment with compounds 23 and 30 plus docetaxel for 24 hrs. Cell lysates were analyzed by Western blot using antibodies of anti-AMPK, p-AMPK, PARP, p-EGFR, EGFR or β-actin. In FIG. 9C, cells were incubated in medium (0.1% BSA without FBS) containing 20 μM of 23, 30, 2.5 μM of Erlotinib (Eb) alone or the combinations as indicated for 24 hrs. Cell lyses were analyzed by Western blot using antibodies of anti-AMPK, p-AMPK, PARP, p-EGFR, EGFR or β-actin.
as §1
A whole cell extract was prepared from the treated cells as described by Landis-Piwowar et al. Cancer Res. (2007) 67, 4303, Chen et al. Cancer Res. (2007) 67, 1636, and Chen et al. Biochem. Pharm. (2005) 69, 1421. Cell extracts (30 μg) were separated by an SDS-PAGE gel and transferred to nitrocellulose membranes. The membrances were blotted by specific antibodies including anti-AMPK, p-AMPK, EGFR, p-EGFR (Cell Signaling Tech., Danvers, Mass.), PARP (Enzo Life Sciences, Plymouth Meeting, Pa.), actin (Santa Cruz Biotechnology, Santa Cruz, Calif.). The membranes were visualized by enhanced chemiluminescence, as described previously by Landis-Piwowar et al. Cancer Res. (2007) 67, 4303, Chen et al. Cancer Res. (2007) 67, 1636, and Chen et al. Biochem. Pharm. (2005) 69, 1421.
(§3) The Western blot analysis was performed as follows: A whole cell extract was prepared from the treated cells as described previously (Landis-Piwowar et al., Cancer research, 2007, 67: 4303-4310; Chen et al., Cancer research, 2007, 67: 1636-1644; Chen et al., Biochemical pharmacology, 2005, 69: 1421-1432). The cell extracts (30 μg) were then separated by an SDS-PAGE gel and transferred to nitrocellulose membranes. The membrances were blotted by specific antibodies including anti-AMPK, p-AMPK, EGFR, p-EGFR (Cell Signaling Tech. Danvers, Mass.), PARP (Enzo Life Sciences, Plymouth Meeting, Pa.), actin (Santa Cruz Biotechnology, Santa Cruz, Calif.). The membranes were visualized by enhanced chemiluminescence, as described previously (Landis-Piwowar et al., Cancer research, 2007, 67: 4303-4310; Chen et al., Cancer research, 2007, 67: 1636-1644; Chen et al., Biochemical pharmacology, 2005, 69: 1421-1432).
(§4) In FIG. 9A, human breast cancer MDA-MB-231 cells were treated with 20 μM of EGCG, Pro-EGCG and other EGCG analogs (compounds 5, 7, 23, 30 and 31), or 10 mM of metformin for 3 hrs. Cell lysates were analyzed by Western blot using antibodies of anti-AMPK, p-AMPK, PARP, p-EGFR, EGFR or β-actin. In FIG. 9B, human breast cancer MDA-MB-231 cells were treated with 20 μM of EGCG analogs 23 and 30, 10 nM of docetaxel alone, or combined treatment with compounds 23 and 30 plus docetaxel for 24 hrs.

MDA-MB-231 cells [2] = assay: Combination with docetaxel or erlotinib, Western blot (PARP cleavage, p-EGFR), MDA-MB-231 cells; type: cell-based, human; conditions: 24 h; for sensitization to docetaxel (apoptotic cell death, PARP cleavage): 20 μM plus 10 nM docetaxel; for sensitization to erlotinib (p-EGFR reduction, PARP cleavage): 20 μM plus 2.5 μM erlotinib
Description: as §2, §3, §4

MDA-MB-231 cells [3] = assay: Mammosphere formation assay; type: cell-based; conditions: Homo sapiens, MDA-MB-231, 168 h, 7 days
Description: MDA-MB-231 cells were seeded in low attached 6-well plates (1000 cells/well) and treated with indicated concentrations of 23 and 30 for 7 days, followed by calculating numbers of mammosphere (A) and taking photos of mammosphere morphology (B). Metformin and EGCG were served as control. *, P<0.1; **, P<0.01. Columns, mean of three experiments; bars, SD.
Mammosphere formation assay was performed to assess the capacity of cancer stem cell self-renewal. Single cell suspensions of MDA-MB-231 cells were thoroughly suspended and plated on ultra low adherent wells of 6-well plates (Corning, Lowell, Mass.) at 1000 cells/well in 1.5 ml of sphere formation medium (1:1 DMEM/F12 medium supplemented with 50 units/ml penicillin, […] streptomycin, B-27 and N-2). One milliliter of sphere formation medium was added every 3-4 days. After 7 days of incubation with different concentrations of EGCG analogs 23, 30 or metformin, the formed spheres were collected by centrifugation at 300 g for 5 min and counted with an inverted phase-contrast Zeiss Axiovert 25 microscope.

Nc1ccc(C(=O)O[C@H]2Cc3ccccc3C[C@H]2OC(=O)c2ccc(N)cc2)cc1 [Compound 30]
inhibition of cell proliferation (in words) [1]: inhibit cell proliferation in a dose-dependent manner
AMPK activation (p-AMPK) (AMPK signaling): more potent AMPK activators even at lower concentration than metformin
AMPK activation (phosphor-AMPKα, phosphor-Raptor), dose dependence (AMPK signaling): activated AMPK in a dose-dependent manner
sensitization to docetaxel (apoptotic cell death, PARP cleavage) (MDA-MB-231 cells [2]): sensitize these TNBC cells to Docetaxel
sensitization to erlotinib (p-EGFR reduction, PARP cleavage) (MDA-MB-231 cells [2]): sensitize these TNBC cells to the EGFR inhibitor Erlotinib
inhibition at 10 µM (MDA-MB-231 cells [3]): 52.2%
inhibition at 20 µM (MDA-MB-231 cells [3]): 73.3%

O=C(O[C@@H]1Cc2c(O)cc(O)cc2O[C@@H]1c1cc(O)c(O)c(O)c1)c1cc(O)c(O)c(O)c1 [Compound 1, (−)-Epigallocatechin gallate, reference compound]
AMPK activation (p-AMPK) (AMPK signaling): can activate AMPK signaling
inhibition at 10 µM (MDA-MB-231 cells [3]): 20.1%
inhibition at 20 µM (MDA-MB-231 cells [3]): 51.3%

O=C(O[C@H]1Cc2ccccc2C[C@H]1OC(=O)c1cc(O)c(Br)c(O)c1)c1cc(O)c(Br)c(O)c1 [Compound 23]
inhibition of cell proliferation (in words) [1]: inhibit cell proliferation in a dose-dependent manner
AMPK activation (p-AMPK) (AMPK signaling): more potent AMPK activators even at lower concentration than metformin
AMPK activation (phosphor-AMPKα, phosphor-Raptor), dose dependence (AMPK signaling): activated AMPK in a dose-dependent manner
sensitization to docetaxel (apoptotic cell death, PARP cleavage) (MDA-MB-231 cells [2]): sensitize these TNBC cells to Docetaxel
sensitization to erlotinib (p-EGFR reduction, PARP cleavage) (MDA-MB-231 cells [2]): sensitize these TNBC cells to the EGFR inhibitor Erlotinib
inhibition at 10 µM (MDA-MB-231 cells [3]): 45.1%
inhibition at 20 µM (MDA-MB-231 cells [3]): 66.7%
